Where a name gives a salt, the structure may show the parent alone.

For the compound `COc1ccc(S(=O)(=O)C(CC=C(C)C)(Cc2cccnc2)C(=O)NO)cc1` (centres unmarked) [Example 63, 2-(4-Methoxy-benzenesulfonyl)-5-methyl-2-pyridin-3-ylmethyl-hex-4-enoic acid hydroxyamide], the melting point lay within 89 to 92 °C.

For the compound `CCN1CCC(C(=O)NO)(S(=O)(=O)c2ccc(OC)cc2)CC1` [Example 95, 1-Ethyl-4-(4-methoxy-benzenesulfonyl)-piperidine-4-carboxylic acid hydroxyamide], the melting point came to 85 °C.

In turn, `COc1ccc(S(=O)(=O)C(Cc2cccnc2)(CC2CCCCC2)C(=O)NO)cc1` (centres unmarked) (as salt: hydrochloride) [Example 65, 3-Cyclohexyl-N-hydroxy-2-(4-methoxy-benzenesulfonyl)2-pyridin-3-ylmethyl-propionamide] showed a melting point of 57 to 60 °C. As to `COc1ccc(S(=O)(=O)C2(C(=O)NO)CCN(CCOc3ccccc3)CC2)cc1` (as salt: HCl) [Example 107, 4-(4-methoxy-benzenesulfonyl)-1-(2-phenoxy-ethyl)-piperidine-4-carboxylic acid hydroxyamide], the melting point lay in the range of 168 to 172 °C.

`COc1ccc(S(=O)(=O)C(CC=C(C)C)(CC=C(C)C)C(=O)NO)cc1` [Example 79, 2-(4-Methoxy-benzenesulfonyl)-5-methyl-2-(3-methyl-but-2-enyl)-hex-4-enoic acid hydroxyamide] displayed a melting point of 93 to 96 °C.

`CCCC(Cc1ccc(OCCN2CCCCCC2)cc1)(C(=O)NO)S(=O)(=O)c1ccc(OC)cc1` (centres unmarked) [Example 19, 2-[4-(2-Azepan-1-yl-ethoxy)-benzyl]-2-(4-methoxy-benzenesulfonyl)-pentanoic acid hydroxyamide] had a melting point of 85 °C. As for `COc1ccc(S(=O)(=O)C2(C(=O)NO)CCN(Cc3cccc(OC)c3)CC2)cc1` [Example 84, 4-(4-methoxy-benzenesulfonyl)-1-(3-methoxy-benzyl)-piperidine-4-carboxylic acid hydroxyamide], the figure is 130 °C; as for `CCCCOc1ccc(S(=O)(=O)C2(C(=O)NO)CCN(CCOc3ccccc3)CC2)cc1` (as salt: HCl) [Example 108, 4-(4-n-Butoxy-benzenesulfonyl)-1-(2-phenoxy-ethyl)-piperidine-4-carboxylic acid hydroxyamide], 112 °C; as for `COc1ccc(S(=O)(=O)C(C)(Cc2ccc3ncccc3c2)C(=O)NO)cc1` (centres unmarked) [Example 67, N-Hydroxy-2-(4-methoxy-benzensulfonyl)-2-methyl-3-quinolin-6-yl-propionamide], 206 °C.

Regarding `COc1ccc(S(=O)(=O)C2(C(=O)NO)CCN(Cc3ccc(OCCN4CCCCC4)cc3)CC2)cc1` (as salt: HCl) [Example 109, 4-(4-Methoxy-benzenesulfonyl)-1-[4-(2-piperidin-1-yl-ethoxy)-benzyl]-piperidine-4-carboxylic acid hydroxyamide], the melting point was determined as 114 °C.

On to `COc1ccc(S(=O)(=O)C(CCCc2ccccc2)(CCCc2ccccc2)C(=O)NO)cc1` [Example 57, 2-(4methoxy-benzenesulfonyl)-5phenyl-2-(3-phenyl-propyl)-pentanoic acid hydroxyamide], for which the melting point was 118 to 120 °C. The same measure for `COc1ccc(S(=O)(=O)C2(C(=O)NO)CCN(C)CC2)cc1` [Example 97, 1-Methyl-4-(4-methoxy-benzenesulfonyl)-piperidine-4-carboxylic acid hydroxyamide]: 89 °C; for `COc1ccc(S(=O)(=O)C2(C(=O)NO)CCN(CCc3ccccc3)CC2)cc1` (as salt: HCl) [Example 103, 4-(4-methoxy-benzenesulfonyl)-1-(2-phenyl-ethyl)-piperidine-4-carboxylic acid hydroxyamide]: 205 °C; for `COc1ccc(S(=O)(=O)C(C)(CC=Cc2ccccc2)C(=O)NO)cc1` (centres unmarked) [Example 56, 2-(4-methoxy-benzenesulfonyl)-2-methyl-5-phenyl-pent-4-enoic acid hydroxyamide]: 162 to 164 °C. As to `C#CCC(Cc1cccnc1)(C(=O)NO)S(=O)(=O)c1ccc(OC)cc1` (centres unmarked) [Example 75, 2-(4-Methoxy-benzenesulfonyl)-2-pyridin-3-ylmethyl-pent-4-ynoic acid hydroxyamide], the melting point lay in the range of 119 to 121 °C.

With `C=CCC(CC=C)(C(=O)NO)S(=O)(=O)c1ccc(OC)cc1` [Example 58, 2-allyl-2-(4-methoxy-benzenesulfonyl)-pent-4-enoic acid hydroxyamide], the melting point is 114 to 116 °C.

In the case of `COc1ccc([S+]([O-])C(C)(CC=C(C)C)C(=O)NO)cc1` (centres unmarked) [Example 6, 2-(4-Methoxy-benzenesulfinyl)-2,5-dimethyl-hex-4-enoic acid hydroxyamide], the melting point was determined as 108 °C. On to `CCC(Cc1ccc(OCCN2CCOCC2)cc1)(C(=O)NO)S(=O)(=O)c1ccc(OC)cc1` (centres unmarked) [Example 33, N-Hydroxy-2-(4-methoxy-benzenesulfonyl)-2-[4-(2-morpholin-4yl-ethoxy)-benzyl]-butyramide], for which the melting point amounted to 51 °C. Take `COc1ccc(S(=O)(=O)C(Cc2ccc3ccccc3c2)C(=O)NO)cc1` (centres unmarked) [Example 40, N-Hydroxy-2-(4-methoxy-benzenesulfonyl)-3-naphthalen-2-yl-propionamide]: the melting point was 161 to 163 °C. `COc1ccc(S(=O)(=O)C(C)(Cc2ccccc2)C(=O)NO)cc1` (centres unmarked) [Example 12, N-Hydroxy-2-(4-methoxy-benzenesulfonyl)-2-methyl-3-phenyl-propionamide] had a melting point of 58 °C. `CC#CCC(CC#CC)(C(=O)NO)S(=O)(=O)c1ccc(F)cc1` [Example 78, 2-(4-Fluoro-benzenesulfonyl)-2-but-2-ynyl-hex-4-ynoic acid hydroxyamide] came in with a melting point of 161 to 163 °C. `COc1ccc(SC(C(=O)NO)c2ccccc2)cc1` (centres unmarked) [Example 2, N-Hydroxy-2-(4-methoxy-phenylsulfanyl)-2-phenyl-acetamide]: the melting point was determined as 155 °C. In the case of `CC#CCC(CC#CC)(C(=O)NO)S(=O)(=O)c1ccc(OC)cc1` [Example 72, 2-(4-Methoxy-benzenesulfonyl)-2-but-2-ynyl-hex-4-ynoic acid hydroxyamide], the melting point lay in the range of 141 to 143 °C.

On to `COc1ccc(S(=O)(=O)C(Cc2ccccc2)C(=O)NO)cc1` (centres unmarked) [Example 9, N-Hydroxy-2-(4-methoxy-benzenesulfonyl)-3-phenyl-propionamide], for which the melting point worked out at 180 °C. The compound `COc1ccc(S(=O)(=O)C2(C(=O)NO)CCCC2)cc1` [Example 54, 1-(4-Methoxy-benzenesulfonyl)-cyclopentanecarboxylic acid hydroxyamide] registered a melting point of 89 to 91 °C.

The compound `COc1ccc(S(=O)(=O)C(C)(Cc2ccc(Br)cc2)C(=O)NO)cc1` (centres unmarked) [Example 51, 3-(4-Bromo-phenyl)-N-hydroxy-2-(4-methoxy-benzenesulfonyl)-2-methyl-propionamide] had a melting point of 86 to 88 °C. The compound `CCCCOc1ccc(S(=O)(=O)C2(C(=O)NO)CCN(Cc3ccc(F)cc3)CC2)cc1` [Example 100, 1-(4-Fluoro-benzyl)-4-(4-butoxy-benzenesulfonyl)-piperidine-4-carboxylic acid hydroxyamide] yielded a melting point of 112 °C. Take `CC#CCC(Cc1cccnc1)(C(=O)NO)S(=O)(=O)c1ccc(F)cc1` (centres unmarked) (as salt: salt) [Example 76, 2-(4-Fluoro-benzenesulfonyl)-2-pyridin-3-ylmethyl-hex-4-ynoic acid hydroxyamide]: the melting point amounted to 190 °C. `COc1ccc(S(=O)(=O)C(C(=O)NO)C(C)C)cc1` (centres unmarked) [Example 53, N-Hydroxy-2-(4methoxy-benzenesulfonyl)-3-methyl-butyramide] had a melting point of 220 °C. The compound `COc1ccc(S(=O)(=O)C(C)(Cc2ccc(OCCN3CCOCC3)cc2)C(=O)NO)cc1` (centres unmarked) (as salt: hydrochloride) [Example 82, 2-(4-methoxy-benzenesulfonyl)-2-methyl-3-[4-(2-mopholinyl-ethoxy)-phenyl]-propionic hydroxyamide hydrochloride] came in with a melting point of 98 °C.

In the case of `CCCCC(Cc1ccc(OCCN(CC)CC)cc1)(C(=O)NO)S(=O)(=O)c1ccc(OC)cc1` (centres unmarked) [Example 27, 2-[4-(2-Diethylamino-ethoxy)-benzyl]-2-(4-methoxy-benzenesulfonyl)-hexanoic acid hydroxyamide], the melting point worked out at 67 °C. `CCCCCCC(Sc1ccc(F)cc1)C(=O)NO` (centres unmarked) [Example 38, 2-(4-Fluoro-phenylsulfanyl)-octanoic acid hydroxyamide] came in with a melting point of 58 °C. As for `CCCCC(Cc1cccnc1)(C(=O)NO)S(=O)(=O)c1ccc(OC)cc1` (centres unmarked) [Example 70, 2-(4-Methoxy-benzenesulfonyl)-2-pyridin-3-ylmethyl-hexanoic acid hydroxyamide], the melting point is 70 °C. The compound `CCCCOc1ccc(S(=O)(=O)C2(C(=O)NO)CCN(Cc3ccc(OC)cc3)CC2)cc1` (as salt: HCl) [Example 104, 4-(4-n-Butoxy-benzenesulfonyl)-1-(4-methoxy-benzyl)-piperidine-4-carboxylic acid hydroxyamide] showed a melting point of 173 °C. Compound `COc1ccc(S(=O)(=O)C(C)(Cc2cccc(OCCN3CCCCC3)c2)C(=O)NO)cc1` (centres unmarked) [Example 22, N-Hydroxy-2-(4-methoxy-benzenesulfonyl)-2-methyl-3-[3-(2-piperidin-1-yl-ethoxy)-phenyl]-propionamide] yielded a melting point of 74 °C. As for `COc1ccc(S(=O)(=O)C2(C(=O)NO)CCN(Cc3ccc(Cl)c(Cl)c3)CC2)cc1` [Example 85, 1-(3,4-dichlorobenzyl)-4-(4-methoxy-benzenesulfonyl)-piperidine-4-carboxylic acid hydroxamide], the figure is 192 to 195 °C. Compound `CCCCCC#CCC(Cc1cccnc1)(C(=O)NO)S(=O)(=O)c1ccc(F)cc1` (centres unmarked) (as salt: salt) [Example 77, 2-(4-Fluoro-benzenesulfonyl)-2-pyridin-3-ylmethyl-dec-4-ynoic acid hydroxyamide] showed a melting point of 180 to 182 °C. As to `CCCCCCCCC(Cc1cccnc1)(C(=O)NO)S(=O)(=O)c1ccc(OC)cc1` (centres unmarked) [Example 62, 2-(4-Methoxy-benzenesulfonyl)-2-pyridin-3-ylmethyl-decanoic acid hydroxyamide], the melting point stood at 62 °C.

Source of the values: US6342508B1, “N-hydroxy-2-(Alkyl,Aryl or Heteroaryl sulfanyl, sulfinyl or sulfonyl) 3-substituted alkyl, aryl or heteroarylamides as matrix metalloproteinase inhibitors” (American Cyanamid Company, priority 1997, dated 2002).
